In patent publication US20160368943A1, “SUBSTITUTED PURINE COMPOUNDS” (EPIZYME, INC., priority 2013, published 2016):
“And” between values parts separate entries of the source, which are not always exact repeats. Equal entries are not always repeated.

Key:
[1] = Liver microsome stability, rat; format: in vitro ADME
Experimental: The final incubation volume was 50 μL. Control incubations were included for each species where 0.1 M phosphate buffer pH 7.4 was added instead of NADPH (minus NADPH). Two control compounds were included for each species. […] The control (minus NADPH) was incubated for 45 minutes only. The reactions were stopped by transferring 25 μL of incubate to 50 μL methanol at the appropriate time points. The incubation plates were centrifuged at 2,500 rpm for 20 minutes at 4° C. to aid protein precipitation. Experimental half-lives were transformed to the corresponding intrinsic clearance values and subsequently scaled to predicted in vivo clearance values, using the well-stirred model as previously described (Houston, Biochemical Pharmacology 47(9): 1469-1479, 1994; Obach, Drug Metabolism and Disposition 27(11): 1350-1359, 1999), with appropriate species-specific scaling factors (Barter et al., Current Drug Metabolism 8(1): 33-45, 2007).

[2] = Prediction of human pharmacokinetics by interspecies scaling
Source text: PK endpoints of CL and VDss in mouse, rat and dog were used to scale to the corresponding parameters in human using a variety of allometric and interspecies scaling approaches as previously reported (Boxenbaum, Journal of Pharmacokinetics and Biopharmaceutics 10(2): 201-227, 1982; Jones et al., Journal of Pharmaceutical Sciences 100(10): 4074-4089, 2011; Lombardo et al., J Clin Pharmacol 53(2): 178-191, 2013a; Lombardo et al., J Clin Pharmacol 53(2): 167-177, 2013b; Mahmood & Balian, Xenobiotica 26(9): 887-895, 1996; Ring et al., Journal of Pharmaceutical Sciences 100(10): 4090-4110, 2011; Tang & Mayersohn, Journal of Pharmaceutical Sciences 95(8): 1783-1799, 2006; Tang & Mayersohn, Drug Metabolism and Disposition 33(9): 1297-1303, 2005; Vuppugalla et al., Journal of Pharmaceutical Sciences 100(10): 4111-4126, 2011). The likely predictive accuracy of each method was assessed based on visual inspection of the data fit, as well as values such as the R^2 and the allometric exponent, where appropriate.

Plasma stability, dog = format: in vitro ADME; settings: Beagle, pooled plasma, 37° C., read-out: Half-life in ex vivo blood plasma
Source text: Samples were quenched in methanol and analyzed by LC-MS/MS analysis.

CC(C)N(C[C@H]1O[C@@H](n2cnc3c(N)ncnc32)[C@H](O)[C@@H]1O)[C@H]1C[C@@H](CCc2nc3cc(C(C)(C)C)ccc3[nH]2)C1 [Compound A, (2R,3R,4S,5R)-2-(6-amino-9H-purin-9-yl)-5-((((1r,3S)-3-(2-(5-(tert-butyl)-1H-benzo[d]imidazol-2-yl)ethyl)cyclobutyl)(isopropyl)amino)methyl)tetrahydrofuran-3,4-diol]
microsomal CLint at 3 μM ([1]; liver microsomes, pH 7.4, NADPH, 3 μM): 72 µL/min/mg | Scaled Hepatic CL from liver microsomes ([1]; well-stirred model): 45 mL/min/kg | Predicted human VDss ([2]; Consensus prediction): 2.8 L/kg and 2.76 L/kg | Predicted human CL ([2]; Consensus prediction (excludes simple allometry)): 6.5 mL/min/kg | Predicted human CL ([2]; MLR rat-dog): 11 mL/min/kg and 10.7 mL/min/kg | Predicted human VDss ([2]; Oie-Tozer equation, rat and dog data): 0.97 L/kg | Predicted human CL ([2]; Simple allometry): 13.3 mL/min/kg | Predicted human VDss ([2]; Simple allometry): 2.71 L/kg | allometric exponent for CL ([2]; Simple allometry): 0.76 | Predicted human VDss ([2]; Simple allometry - unbound): 1.16 L/kg | Predicted human VDss ([2]; Wajima equation, rat and dog data): 6.2 L/kg | human CL estimates ([2]; across multiple, diverse scaling approaches): 6 to 8 mL/min/kg | Predicted human VDss ([2]; simple allometry (total and unbound) and Oie-Tozer equation): 1 to 3 L/kg | Predicted human VDss ([2]; simple allometry using total and unbound terms): 1.2 to 2.7 L/kg | half-life at 1 μM (Plasma stability, dog): > 2 h
